Some test systems named below: DMS-114; M19-MEL; DLD-1; XF498; HOP-18; LXFL 529; DMS-273; SNB-78; RXF 631.
What all share (assay): DTP human tumour cell line panel, 48 h

From ChEMBL document CHEMBL1201862, “PubChem BioAssay data set” (2004) come the findings set out here.

The structures appear in SMILES notation.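 In this assay, cells in 96-well plates receive the compound at five concentrations for 48 hours. Endpoints are linearly interpolated between the surrounding concentrations. At the GI50, growth is halved.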 Active and inactive are the calls of the source. Cut-off read from the data, not from the text of the source: active = GI50 up to about 1.1 µM and inactive = higher. Some results are limits rather than exact numbers.

The GI50 is the concentration that inhibits growth by half.

Regarding `COc1cc(C=C2C(=O)NC(=O)NC2=O)cc(OC)c1OC`, the GI50 in the assay with DMS-114, with M19-MEL, with DLD-1, with XF498, in the assay with HOP-18 and in the assay on LXFL 529 was > 100 µM (inactive) each time. For the same compound, the GI50 with DMS-273 and in the assay with SNB-78 was > 100 µM (inactive) each time.

Take `CNC(=O)CN(CC(N)=O)C(N)=O`: the GI50 in the assay on M19-MEL, with DLD-1, in the assay on XF498, in the assay on LXFL 529, in the assay on RXF 631 and with DMS-273 was > 100 µM (inactive) each time. Further, the GI50 in the assay on SNB-78 was > 100 µM (inactive).

For the compound `CCOC(=O)C12CN(C34CC5CC(CC(C5)C3)C4)CC(C(=O)OCC)(C1=O)C(c1ccccc1)OC2c1ccccc1` (stereo not given), the GI50 is 52.2 µM (inactive) in the assay with DMS-114; > 100 µM (inactive) in the assay on M19-MEL; > 100 µM (inactive) in the assay with DLD-1; > 100 µM (inactive) with XF498; 31.3 µM (inactive) in the assay with LXFL 529; > 100 µM (inactive) with DMS-273. Also, in the assay with SNB-78, the GI50 is > 100 µM (inactive).

Regarding `C[C@H](O)CCC(=O)c1ccoc1`, the GI50 is > 100 µM (inactive) in the assay on DMS-114; > 100 µM (inactive) in the assay on M19-MEL; > 100 µM (inactive) with DLD-1; 75 µM (inactive) in the assay with HOP-18; > 100 µM (inactive) in the assay with LXFL 529; > 100 µM (inactive) in the assay on DMS-273. The GI50 with SNB-78 was > 100 µM (inactive).

On to `O=C1C(CN2CCOCC2)CCCC1CN1CCOCC1` (stereo not given), for which the GI50 in the assay on DMS-114 is 5.61 µM (inactive); in the assay on M19-MEL, 7.11 µM (inactive); with DLD-1 it was 0.67 µM (active); in the assay with HOP-18, 1.81 µM (inactive); with LXFL 529 it was 1.53 µM (inactive); with RXF 631 it was 10.5 µM (inactive). In addition, the GI50 in the assay with DMS-273 is 8.11 µM (inactive); in the assay on SNB-78, 2.35 µM (inactive).

`CN(C)CCCN1CCc2c([nH]c3ccccc23)C1c1cccnc1` (stereo not given): the GI50 in the assay on DMS-114, with M19-MEL, with DLD-1, with XF498, with LXFL 529 and in the assay with RXF 631 was > 100 µM (inactive) in each case. For the same compound, the GI50 in the assay with DMS-273 and in the assay with SNB-78 was > 100 µM (inactive) throughout.

For `Cc1c(-c2coc(-c3ccc([N+](=O)[O-])cc3)n2)c(=O)n(-c2ccccc2)n1C`, the GI50 with DMS-114, in the assay with M19-MEL, with DLD-1, in the assay on LXFL 529, in the assay on DMS-273 and in the assay with SNB-78 was > 100 µM (inactive) throughout.

For the compound `NS(=O)(=O)c1ccccc1C(=O)N/N=C(\c1nc2ccc([N+](=O)[O-])cc2[nH]c1=O)C(O)c1ccc([N+](=O)[O-])cc1` (stereo not given), the GI50 with M19-MEL, in the assay with DLD-1, in the assay on XF498, in the assay with HOP-18 and in the assay with LXFL 529 was > 100 µM (inactive) each time.

Regarding `O=C(c1ccccc1)C1S(=O)(=O)OCCOS1(=O)=O`, the GI50 with DMS-114, in the assay with M19-MEL, in the assay on DLD-1, with XF498, in the assay with LXFL 529 and in the assay on RXF 631 was > 100 µM (inactive) each time. For the same compound, the GI50 in the assay on DMS-273 and with SNB-78 was > 100 µM (inactive) in each case.

As for `Cc1ccc(NC(=O)OCC(COc2ccc(Cl)cc2Cl)OC(=O)Nc2ccc(C)cc2)cc1` (stereo not given), the GI50 is > 100 µM (inactive) with DMS-114; > 100 µM (inactive) with M19-MEL; > 100 µM (inactive) in the assay with DLD-1; 69.5 µM (inactive) in the assay with HOP-18; 81.5 µM (inactive) in the assay with LXFL 529; > 100 µM (inactive) with DMS-273. Further, in the assay on SNB-78, the GI50 is > 100 µM (inactive).

For the compound `CC(=O)OCCOCBr`, the GI50 in the assay with DMS-114, with M19-MEL, in the assay with DLD-1, in the assay on XF498, in the assay on HOP-18 and in the assay on LXFL 529 was > 100 µM (inactive) each time. The GI50 in the assay on RXF 631 and with DMS-273 was > 100 µM (inactive) throughout.

Turning to `CCOC(=O)CC(=O)Sc1ccccc1`, the GI50 in the assay with DMS-114 is 14.4 µM (inactive); in the assay on M19-MEL it was 17.9 µM (inactive); in the assay with DLD-1, 20 µM (inactive); in the assay on XF498, 34.4 µM (inactive); in the assay with HOP-18, > 100 µM (inactive); in the assay on DMS-273, 20.7 µM (inactive).

On to `COc1ccccc1NC(=O)CC(=O)n1nc(C)c(/N=N/c2ccccc2C(=O)O)c1C`, for which the GI50 with DMS-114, in the assay with M19-MEL, in the assay on DLD-1, in the assay on XF498, in the assay with LXFL 529 and in the assay on DMS-273 was > 100 µM (inactive) in each case. For the same compound, in the assay with SNB-78, the GI50 was > 100 µM (inactive).

Take `O=C1C2c3[nH]c4ccccc4c3C3CCCCCCC3C2C(=O)N1c1ccccc1` (stereo not given): the GI50 was 4.71 µM (inactive) with DMS-114; 10.9 µM (inactive) in the assay with M19-MEL; > 10 µM (inactive) with DLD-1; 1.92 µM (inactive) in the assay with XF498; 12.9 µM (inactive) in the assay with LXFL 529; 4.71 µM (inactive) in the assay on RXF 631. The figures for the GI50 with DMS-273 and in the assay with SNB-78 were 11.1 µM (inactive) and 13.2 µM (inactive), respectively.

As to `Cc1ccc(/C=N/NS(=O)(=O)c2ccccc2)cc1C`, the GI50 in the assay on DMS-114 is 46.1 µM (inactive); with M19-MEL, > 100 µM (inactive); with DLD-1 it was > 100 µM (inactive); in the assay on XF498, 87.3 µM (inactive); in the assay with HOP-18, > 100 µM (inactive); in the assay on LXFL 529 it was 36.5 µM (inactive). Besides, the GI50 in the assay with DMS-273 and in the assay with SNB-78 was > 100 µM (inactive) each time.

Take `O=C1C2C=CC(n3[nH]c(=O)n(Cc4ccccc4)c3=O)CC2C(=O)N1c1ccc(Br)cc1` (stereo not given): the GI50 with DMS-114, with M19-MEL, in the assay on DLD-1, in the assay on HOP-18, in the assay with LXFL 529 and in the assay with DMS-273 was > 100 µM (inactive) throughout. For the same compound, the GI50 with SNB-78 was > 100 µM (inactive).

Take `O=C(CC1(O)C(=O)Nc2ccccc21)c1ccc(Cl)cc1Cl` (stereo not given): the GI50 with DMS-114, with M19-MEL, in the assay on DLD-1, in the assay with XF498, in the assay with LXFL 529 and with RXF 631 was > 100 µM (inactive) throughout. Moreover, the GI50 in the assay with DMS-273 and with SNB-78 was > 100 µM (inactive) throughout.

Consider `N#CC(C(=O)CCC(=O)Nc1ccc(Cl)c(Cl)c1)c1ccc(Cl)cc1` (stereo not given), for which the GI50 in the assay with DMS-114 is 75.3 µM (inactive); in the assay on M19-MEL, 82.2 µM (inactive); in the assay with DLD-1, 55.5 µM (inactive); in the assay on HOP-18 it was > 100 µM (inactive); with LXFL 529 it was 21.3 µM (inactive); in the assay with RXF 631, 90.6 µM (inactive). Further, the GI50 is 39.3 µM (inactive) with DMS-273 and > 100 µM (inactive) in the assay with SNB-78.

On to `C=C(CN(C)C)C(=O)c1ccccc1Cl`, for which the GI50 with DMS-114 is 15.9 µM (inactive); in the assay with M19-MEL, 18.3 µM (inactive); in the assay with DLD-1, 17.3 µM (inactive); with HOP-18 it was 19.5 µM (inactive); in the assay on LXFL 529 it was 12.5 µM (inactive); with RXF 631, 21.2 µM (inactive). In addition, the GI50 in the assay on DMS-273 was 19.6 µM (inactive); in the assay on SNB-78, 30.4 µM (inactive).

With `O=C(Nc1ccccc1-c1nn(C(=S)Nc2ccccc2)c(=S)n(C(=S)Nc2ccccc2)c1=O)C(F)(F)F`, the GI50 in the assay with DMS-114 was 9.38 µM (inactive); in the assay with M19-MEL, 28.2 µM (inactive); in the assay on DLD-1 it was 24.8 µM (inactive); with XF498, 23.1 µM (inactive); in the assay on HOP-18 it was 30.1 µM (inactive); in the assay with LXFL 529 it was 17.1 µM (inactive). The GI50 in the assay with DMS-273 is 27.4 µM (inactive); in the assay with SNB-78, 35.4 µM (inactive).

For the compound `O=C1C2CCC(C2)C12CC1(c3ccccc3)C(=O)c3ccccc3N1O2` (stereo not given), the GI50 in the assay on DMS-114, with M19-MEL, with DLD-1, in the assay with XF498, with HOP-18 and in the assay on LXFL 529 was > 100 µM (inactive) throughout. Also, the GI50 was 81.8 µM (inactive) with DMS-273 and > 100 µM (inactive) in the assay on SNB-78.

Regarding `O=c1[nH]c(=O)n(C2OC(CO)C(O)C2O)cc1OCC(F)(F)F` (stereo not given), the GI50 in the assay with DMS-114, with M19-MEL, with DLD-1, in the assay on XF498, with HOP-18 and with LXFL 529 was > 100 µM (inactive) throughout. For the same compound, the GI50 in the assay with DMS-273 and in the assay on SNB-78 was > 100 µM (inactive) in each case.

For `CC/C=C/c1cc2cc[nH]c2c2c1C(C)C[C@@H]2C` (stereo not given in full), the GI50 in the assay on DMS-114 is 20.6 µM (inactive); with M19-MEL, 27.5 µM (inactive); with DLD-1, 34.2 µM (inactive); in the assay with HOP-18, 17.9 µM (inactive); in the assay with LXFL 529, 18.3 µM (inactive); in the assay on DMS-273 it was > 10 µM (inactive). Besides, the GI50 with SNB-78 is 24.9 µM (inactive).

Take `CC(=O)OC(C[C@H](C)[C@@H]1CC[C@]2(C)C3=CCC4C(C)(C)C(=O)CC[C@]4(C)C3CCC12C)C1OC1(C)C` (stereo not given in full): the GI50 in the assay with DMS-114 was 32.5 µM (inactive); with M19-MEL, 31.2 µM (inactive); in the assay with DLD-1, 29.7 µM (inactive); in the assay on XF498 it was 18.5 µM (inactive); in the assay on HOP-18, > 100 µM (inactive); in the assay with LXFL 529 it was 22.4 µM (inactive). Moreover, in the assay with DMS-273, the GI50 was 17.1 µM (inactive).

Turning to `C[C@]12CC[C@@H]3c4ccc(O)cc4CC[C@H]3[C@@H]1CC[C@@H]2OC(=O)CCC1CCCC1` [ESTRADIOL CYPIONATE], the GI50 is 30.8 µM (inactive) in the assay with DMS-114; 27.4 µM (inactive) in the assay on M19-MEL; 33 µM (inactive) in the assay with DLD-1; 18.9 µM (inactive) with XF498; 20.3 µM (inactive) in the assay with HOP-18; 17.5 µM (inactive) in the assay with LXFL 529. Also, the GI50 in the assay on DMS-273 is 14.3 µM (inactive); with SNB-78 it was 56.9 µM (inactive).
